Counter-ions that a name gives are not always drawn. Like-named read-outs stand apart in the source and are kept apart here.
Legend:
[1] = biological target: T1, ^14C-Acetat-Einbau in die mit Digitonin fällbaren Steroide (Homo sapiens, UniProt P48449); assay: Inhibition of 14C-acetate incorporation into digitonin-precipitable steroids; assay type: cell-based; conditions: read-out: Prozentwerte, um die die Verbindungen den ^14C-Acetat-Einbau hemmen
T1 sequence (P48449 2-732): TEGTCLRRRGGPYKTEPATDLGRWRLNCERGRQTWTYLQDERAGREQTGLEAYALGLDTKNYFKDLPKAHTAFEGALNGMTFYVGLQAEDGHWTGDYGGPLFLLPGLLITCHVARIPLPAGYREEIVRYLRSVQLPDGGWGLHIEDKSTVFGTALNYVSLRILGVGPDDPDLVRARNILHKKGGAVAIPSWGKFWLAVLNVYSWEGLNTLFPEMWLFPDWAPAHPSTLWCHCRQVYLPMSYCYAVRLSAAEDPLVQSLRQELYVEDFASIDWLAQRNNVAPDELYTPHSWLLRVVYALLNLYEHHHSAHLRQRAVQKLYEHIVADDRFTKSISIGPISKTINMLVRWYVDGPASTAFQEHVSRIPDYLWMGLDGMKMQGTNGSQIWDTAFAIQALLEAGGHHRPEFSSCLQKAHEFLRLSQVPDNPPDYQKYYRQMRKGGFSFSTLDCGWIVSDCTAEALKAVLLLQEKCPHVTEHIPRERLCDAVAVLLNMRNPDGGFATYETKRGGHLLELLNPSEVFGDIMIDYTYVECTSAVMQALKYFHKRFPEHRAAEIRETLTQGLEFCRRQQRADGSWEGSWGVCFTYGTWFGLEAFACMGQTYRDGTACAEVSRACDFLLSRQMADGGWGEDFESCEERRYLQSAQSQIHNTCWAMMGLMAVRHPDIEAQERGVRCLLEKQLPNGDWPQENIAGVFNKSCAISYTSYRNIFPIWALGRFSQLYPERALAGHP
Description: I. Messung der Hemmung des ^14C-Acetat-Einbaus in die mit Digitonin fällbaren Steroide:
Die Untersuchung der Hemmwirkung wurde nach der in J. Lipid. Res. 37, 148-157 [1996] beschriebenen Methode bei Testkonzentrationen von 10^-8 und 10^-9 Mol/l durchgeführt.
Die Prozentwerte, um die obigen Verbindungen den ^14C-Acetat-Einbau hemmen, sind in Tabelle 1 angegeben.

[2] = tested on: 2,3-Epoxisqualen-Lanosterol-Cyclase; assay: In-vivo effect in the rat after oral administration: 2,3-epoxysqualene level in the liver; design: species or system Ratte
Protocol: II. Messung der in-vivo Wirkung an der Ratte nach oraler Gabe
Die Inhibierung des Enzyms 2,3-Epoxisqualen-Lanosterol-Cyclase bewirkt eine Erhöhung der 2,3-Epoxisqualenspiegel in Leber und Plasma. Die Menge an gebildetem 2,3-Epoxisqualen dient daher als direktes Maß für die Wirkstärke am Ganztier.Die Bestimmung wurde nach der in J. Lipid. Res. 38, 564-575, [1997] beschriebenen Methode nach t = 3 bzw. 8 Stunden nach Substanzgabe mit Konzentrationen von c = 0.01, 0.03, 0.1, 0.3 und 1.0 mg/kg durchgeführt. In der folgenden Tabelle 3 sind beispielhaft die Ergebnisse für die vorstehend erwähnten Substanzen A, B, C, D, E, G, H, I und K angegeben.

[3] = tested on: Asp. niger ATCC 16404; assay: Fungistatic effect, serial dilution test (microtitre system); assay type: cell-based; conditions: Aspergillus niger
Protocol: (§1) IV. Bestimmung der fungistatischen Wirkung
(§2) Die fungistatische Wirkung wurde über den Reihenverdünnungstest (Mikrotitersystem) bestimmt. Als Nährmedium diente Sabouraud-Bouillon. Das Inoculum betrug ca. 10^4 bis 10^5 KBE/ml (KBE = koloniebildende Einheiten); die Bebrütungszeit betrug 2 bis 4 Tage bei 26°C.
(§3) Es wurde die niedrigste Konzentration, die sichtbares Wachstum nicht mehr zuließ (minimale Hemmkonzentration MHK), bestimmt.
(§4) Geprüft wurden die vorstehend erwähnten Verbindungen A, B, D, E, F, H, I, K, L und M. Die Ergebnisse sind in der folgenden Tabelle 5 zusammengefaßt. Die MHK ist in µg/ml angegeben.

[4] = tested on: Cand. albicans ATCC 10231; assay: as above; assay type: cell-based; conditions: Candida albicans
Protocol: as §1, §2, §3, §4

[5] = tested on: Pen.notatum CBS 19746; assay: as above; assay type: cell-based; conditions: Penicillium chrysogenum
Protocol: as §1, §2, §3, §4

[6] = tested on: Rhod. rubra 49; assay: as above; assay type: cell-based; conditions: read-out: MHK
Protocol: as §1, §2, §3, §4

[7] = tested on: Sacch. carlsbergensis ATCC 9080; assay: as above; assay type: cell-based; conditions: Saccharomyces pastorianus
Protocol: as §1, §2, §3, §4

[8] = tested on: Trich. mentagrophytes ATCC 9129; assay: as above; assay type: cell-based; conditions: Trichophyton mentagrophytes
Protocol: as §1, §2, §3, §4

[9] = ATCC16404, Asp., Sabouraud-Bouillon, 2 bis 4 Tage bei 26°C, read-out: MHK
[10] = ATCC10231, Cand., Sabouraud-Bouillon, 2 bis 4 Tage bei 26°C, read-out: MHK
[11] = CBS19746, Pen., Sabouraud-Bouillon, 2 bis 4 Tage bei 26°C, read-out: MHK
[12] = Rhod., Sabouraud-Bouillon, 2 bis 4 Tage bei 26°C
[13] = ATCC9080, Sacc., Sabouraud-Bouillon, 2 bis 4 Tage bei 26°C, read-out: MHK
[14] = ATCC9129, Trich., Sabouraud-Bouillon, 2 bis 4 Tage bei 26°C, read-out: MHK

| Structure (SMILES) | inhibition at 0.01 µM ([1]; Testkonzentration 10^-8 Mol/l) [%] | inhibition at 0.001 µM ([1]; Testkonzentration 10^-9 Mol/l) [%] | 2,3-Epoxysqualen-Konzentration in der Leber (Ratte) ([2]; c = 0.3 mg/kg, t = 3 h) [µg/g] | 2,3-Epoxysqualen-Konzentration in der Leber (Ratte) ([2]; c = 0.3 mg/kg, t = 8 h) [µg/g] | 2,3-Epoxysqualen-Konzentration in der Leber (Ratte) ([2]; c = 1.0 mg/kg, t = 3 h) [µg/g] | 2,3-Epoxysqualen-Konzentration in der Leber (Ratte) ([2]; c = 1.0 mg/kg, t = 8 h) [µg/g] | MIC [3, 9] [µg/mL] | MIC [4, 10] [µg/mL] | MIC [5, 11] [µg/mL] | MIC [6, 12] [µg/mL] | MIC [7, 13] [µg/mL] | MIC [8, 14] [µg/mL] | 2,3-Epoxysqualen-Konzentration in der Leber (Ratte) ([2]; c = 0.01 mg/kg, t = 3 h) [µg/g] | 2,3-Epoxysqualen-Konzentration in der Leber (Ratte) ([2]; c = 0.01 mg/kg, t = 8 h) [µg/g] | 2,3-Epoxysqualen-Konzentration in der Leber (Ratte) ([2]; c = 0.1 mg/kg, t = 3 h) [µg/g] | 2,3-Epoxysqualen-Konzentration in der Leber (Ratte) ([2]; c = 0.1 mg/kg, t = 8 h) [µg/g] | further results |
| --- | --- | --- | --- | --- | --- | --- | --- | --- | --- | --- | --- | --- | --- | --- | --- | --- | --- |
| CN(C)Cc1ccc(C(=O)C2CCN(C(=S)SCc3ccccc3)CC2)cc1.Cl [B, N-(Benzylthio) thiocarbonyl-4-[4-(dimethylaminomethyl)benzoyl]piperidin-hydrochlorid] | 85 | 47 | 4.5 | 5.8 | 39.2 | 42.0 | 32 | 64 | 8 | 16 | 32 | 2 |  |  |  |  |  |
| CN(C)Cc1ccc(SC2CCN(C(=O)OCc3ccccc3)CC2)cc1.Cl [C, N-Benzyloxycarbonyl-4-[4-(dimethylaminomethyl)phenylthio]-piperidin-hydrochlorid] | 78 | 57 | 0.5 | 1.8 | 3.8 | 2.0 |  |  |  |  |  |  | 0.6 | 3.0 | 0.5 | 1.3 |  |
| CN(C)Cc1ccc(SC2CCN(C(=O)Oc3ccc(Cl)cc3)CC2)cc1 [D, N-(4-Chlorphenoxy)carbonyl-4-[4-(dimethylaminomethyl)-phenylthio]piperidin-hydrochlorid] |  |  |  |  |  |  |  |  |  |  |  |  | 1.3 | 1.0 | 1.4 | 1.8 | inhibition at 0.001 µM [1]: 55%; inhibition at 0.01 µM [1]: 86%; MIC ([3]; ATCC16404, read-out: MHK): 256 µg/mL; MIC ([4]; ATCC10231, read-out: MHK): 64 µg/mL; MIC ([5]; CBS19746, read-out: MHK): 128 µg/mL; MIC [6]: 64 µg/mL; MIC ([7]; ATCC9080, read-out: MHK): 128 µg/mL; MIC ([8]; ATCC9129, read-out: MHK): 16 µg/mL |
| CN(C)Cc1ccc(CC2CCN(C(=S)SCc3ccccc3)CC2)cc1.Cl [E, N-(Benzylthio)thiocarbonyl-4-[4-(dimethylaminomethyl)-benzyl]piperidin-hydrochlorid] | 87 | 47 |  |  |  |  | 8 | 16 | 1 | 4 | 16 | 1 | 0.9 | 1.0 | 5.6 | 4.4 |  |
| CN(C)Cc1ccc(C=C2CCN(C(=S)SCc3ccccc3)CC2)cc1.Cl [F, N-(Benzylthio)thiocarbonyl-4-[4-(dimethylaminomethyl)-benzyliden]piperidin-hydrochlorid] | 84 | 45 |  |  |  |  | 8 | 16 | 4 | 4 | 16 | 2 |  |  |  |  |  |
| CN(C)Cc1ccc(CC2CCN(C(=S)Oc3ccc(Cl)cc3)CC2)cc1 [G, N-(4-Chlorphenoxy)thiocarbonyl-4-[4-(dimethylaminomethyl)-benzyl]piperidin-hydrochlorid] | 83 | 56 |  |  | 87.4 | 134.2 |  |  |  |  |  |  |  |  | 10.3 | 11.5 |  |
| Cc1ccc(OC(=S)N2CCC(Cc3ccc(CN(C)C)cc3)CC2)cc1.Cl [L, 4-[4-(Dimethylaminomethyl)benzyl] -N-(4-methylphenoxy) - thiocarbonylpiperidin-hydrochlorid] | 88 | 64 |  |  |  |  | 64 | 32 | 32 | 8 | 64 | 1 |  |  |  |  |  |
| CN(C)Cc1ccc([C@H]2CC[C@H](N(C)C(=O)c3ccc(Cl)cc3)CC2)cc1 [V, reference compound] | 59 | 23 |  |  |  |  |  |  |  |  |  |  |  |  |  |  |  |
| CN(C)Cc1ccc(SC2CCN(C(=S)SCc3ccccc3)CC2)cc1.Cl [Verbindung A, N-(Benzylthio)thiocarbonyl-4-[4-(dimethylaminomethyl)-phenylthio]piperidin-hydrochlorid] | 85 | 53 | 2.0 | 1.2 | 9.3 | 9.8 | 8 | 16 | 4 | 16 | 8 | 1 |  |  |  |  |  |
| Cc1ccc(CC(=O)O[C@H]2CC[C@H](c3ccc(CN(C)C)cc3)CC2)cc1 [W, trans-O-(p-Tolylacetyl)-4-(4-dimethylaminomethylphenyl)-cyclohexanol, reference compound] | 72 | 21 |  |  |  |  |  |  |  |  |  |  |  |  |  |  |  |

Source: patent publication EP1060162B1, “URETHANES DERIVED FROM AZACYCLOALKANES, THIO AND DITHIO ANALOGUES, PRODUCTION AND USE THEREOF AS 2,3 EPOXYSQUALENE LANESTEROL CYCLASE INHIBITORS” (Boehringer Ingelheim Pharma KG, priority 1997, dated 1999)
